The text below walks through data of patent US20100311714A1, “1H-IMIDAZO[4,5-c]QUINOLINONE COMPOUNDS” (priority 2009, published 2010).

Read-outs that look alike come from different tables or passages of the source.

Series [1] deals with PKB Ser473 phosphorylation in Rat1-myr-HA-p110 beta cells. Briefly: Reverse protein array, PKB Ser473 phosphorylation in Rat1-myr-HA-p110 beta cells. Type of series: cell-based. The following applies: Rattus norvegicus, 0.5 h, 30 minutes compound incubation, read-out: p-PKB/IC50_beta.
Series [2] has as its target T1, mTOR (Homo sapiens, UniProt P42345).
T1 construct: purchased Invitrogen Corporation (Carlsbad/Calif., USA) PV4753
In words: Biochemical assay for m-TOR by TR-FRET. The method, boiled down:
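mTOR (0.5 nM) phosphorylates GFP-4EBP1 (400 nM) with 8 μM ATP at rt in 50 mM HEPES pH 7.5, 10 mM MnCl2, 50 mM NaCl, 1 mM EGTA, 1 mM DTT; compounds 0.003–10 μM final. EDTA stop with Tb-anti-p4EBP1[pT46] antibody (0.5 nM); TR-FRET read after 15 min against no-enzyme and vehicle controls.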
A general note: In TR-FRET formats the signal depends on donor and acceptor labels being close together.

The subject of series [3] is PKB Ser473 phosphorylation in Rat1-myr-HA-p110 alpha cells. Briefly: Reverse protein array, PKB Ser473 phosphorylation in Rat1-myr-HA-p110 alpha cells. Format: cell-based. The conditions noted are these: Rattus norvegicus, 0.5 h, 30 minutes compound incubation, read-out: p-PKB/IC50_alpha.
Series [4] can be described thus: Parallel Artificial Membrane Permeability Assay (PAMPA) at pH 6.8. Type of series: physicochemical. A digest of the protocol: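 Reported as log Pe, membrane permeability was determined by parallel artificial membrane assay at pH 6.8 per Wohnsland–Faller.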
In general terms: The PAMPA barrier holds no transporters, so it reflects passive diffusion.

T1 sequence (P42345 1360-2549 limits assumed): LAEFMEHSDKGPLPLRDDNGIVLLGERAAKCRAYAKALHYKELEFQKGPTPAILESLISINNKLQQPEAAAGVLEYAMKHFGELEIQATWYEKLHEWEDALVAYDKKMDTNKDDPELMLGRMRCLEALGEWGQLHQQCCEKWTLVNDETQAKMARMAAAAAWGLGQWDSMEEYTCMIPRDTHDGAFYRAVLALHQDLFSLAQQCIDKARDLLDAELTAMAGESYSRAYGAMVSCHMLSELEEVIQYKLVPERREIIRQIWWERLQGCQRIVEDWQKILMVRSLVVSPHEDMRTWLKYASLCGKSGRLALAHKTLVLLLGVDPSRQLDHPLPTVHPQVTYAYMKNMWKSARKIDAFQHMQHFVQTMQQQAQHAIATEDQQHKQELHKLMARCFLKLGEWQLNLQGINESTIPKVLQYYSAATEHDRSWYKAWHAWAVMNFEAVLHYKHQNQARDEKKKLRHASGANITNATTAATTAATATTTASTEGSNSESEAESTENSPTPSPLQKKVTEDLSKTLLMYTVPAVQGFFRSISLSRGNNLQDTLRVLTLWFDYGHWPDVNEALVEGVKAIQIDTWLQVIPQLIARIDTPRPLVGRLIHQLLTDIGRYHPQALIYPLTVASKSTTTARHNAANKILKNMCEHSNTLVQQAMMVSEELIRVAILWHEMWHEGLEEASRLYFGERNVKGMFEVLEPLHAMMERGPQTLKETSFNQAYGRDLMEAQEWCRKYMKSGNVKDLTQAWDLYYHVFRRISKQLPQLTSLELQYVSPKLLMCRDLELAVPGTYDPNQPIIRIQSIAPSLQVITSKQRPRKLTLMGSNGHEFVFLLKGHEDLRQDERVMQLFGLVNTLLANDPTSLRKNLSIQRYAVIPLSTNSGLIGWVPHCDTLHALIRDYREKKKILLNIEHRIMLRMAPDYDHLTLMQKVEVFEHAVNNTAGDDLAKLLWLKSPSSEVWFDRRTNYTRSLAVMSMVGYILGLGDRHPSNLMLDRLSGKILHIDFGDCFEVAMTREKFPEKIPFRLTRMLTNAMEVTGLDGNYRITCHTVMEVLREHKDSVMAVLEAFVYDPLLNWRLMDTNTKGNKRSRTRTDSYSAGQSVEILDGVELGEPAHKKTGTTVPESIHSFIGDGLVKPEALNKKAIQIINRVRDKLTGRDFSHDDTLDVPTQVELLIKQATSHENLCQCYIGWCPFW

In the case of `COc1ncccc1-n1c(=O)n(C)c2cnc3ccc(-c4cnc5c(ccn5C)c4)cc3c21` [Example 1.7, 1-(2-Methoxy-pyridin-3-yl)-3-methyl-8-(1-methyl-1H-pyrrolo[2,3-b]pyridin-5-yl)-1,3-dihydro-imidazo[4,5-c]quinolin-2-one], the IC50 stood at 29.6 nM in series [1], 16 nM in series [2] (read-out: mTOR/IC50) and 5.44 nM in series [3]. Also, the “HT-perm/logPe pH6.8” value in series [4] was −3.8.
In the same order, the values of `COc1ncccc1-n1c(=O)n(C)c2cnc3ccc(-c4ccc(F)nc4)cc3c21` [Example 1.8, 8-(6-Fluoro-pyridin-3-yl)-1-(2-methoxy-pyridin-3-yl)-3-methyl-1,3-dihydro-imidazo[4,5-c]quinolin-2-one] are 324 nM, 87 nM, 97.6 nM and −3.7.
As to `COc1ncccc1-n1c(=O)n(C)c2cnc3ccc(-c4cnc(N(C)C)nc4)cc3c21` [Example 1.9, 8-(2-Dimethylamino-pyrimidin-5-yl)-1-(2-methoxy-pyridin-3-yl)-3-methyl-1,3-dihydro-imidazo[4,5-c]quinolin-2-one], the results for the IC50 in series [1], in series [2] (read-out: mTOR/IC50) and in series [3] were 60.3 nM, 14 nM and 57.6 nM, respectively. For the same compound, the “HT-perm/logPe pH6.8” value in series [4] is recorded as −3.3.
Turning to `CCOc1ccc(-c2ccc3ncc4c(c3c2)n(-c2cccnc2C)c(=O)n4C)cn1` [Example 2.1, 8-(6-Ethoxy-pyridin-3-yl)-3-methyl-1-(2-methyl-pyridin-3-yl)-1,3-dihydro-imidazo[4,5-c]quinolin-2-one], the values for the IC50 in series [1], in series [2] (read-out: mTOR/IC50) and in series [3] were 18.3 nM, 42 nM and 6.31 nM, respectively. In series [4], the “HT-perm/logPe pH6.8” value is −3.7.
Consider `CNc1ncc(-c2ccc3ncc4c(c3c2)n(-c2cccnc2C)c(=O)n4C)cn1` [Example 2.2, 3-Methyl-8-(2-methylamino-pyrimidin-5-yl)-1-(2-methyl-pyridin-3-yl)-1,3-dihydro-imidazo[4,5-c]quinolin-2-one], for which the IC50 in series [1] stood at 14.7 nM; in series [2] (read-out: mTOR/IC50), 8 nM; in series [3], 15.9 nM. For the same compound, the “HT-perm/logPe pH6.8” value in series [4] is given as −4.7.
As for `Cc1ncccc1-n1c(=O)n(C)c2cnc3ccc(-c4cnc5c(ccn5C)c4)cc3c21` [Example 2.14, 3-Methyl-1-(2-methyl-pyridin-3-yl)-8-(1-methyl-1H-pyrrolo[2,3-b]pyridin-5-yl)-1,3-dihydro-imidazo[4,5-c]quinolin-2-one], the IC50 is 13.1 nM in series [1], 24 nM in series [2] (read-out: mTOR/IC50) and 7.38 nM in series [3]. The “HT-perm/logPe pH6.8” value in series [4] was −3.9.
For the compound `CCOc1cc(-c2ccc3ncc4c(c3c2)n(-c2cccnc2C)c(=O)n4C)cnc1C` [Example 2.22, 8-(5-Ethoxy-6-methyl-pyridin-3-yl)-3-methyl-1-(2-methyl-pyridin-3-yl)-1,3-dihydro-imidazo[4,5-c]quinolin-2-one], the IC50 was 22.5 nM in series [1], 80 nM in series [2] (read-out: EPK_mTOR/IC50) and 11 nM in series [3]. Moreover, the “HT-Perm logPe pH6.8” value in series [4] is on record as −3.7.
Consider `Cc1cccnc1-n1c(=O)n(C)c2cnc3ccc(-c4cnc5ccccc5c4)cc3c21` [Example 3.8, 3-Methyl-1-(3-methyl-pyridin-2-yl)-8-quinolin-3-yl-1,3-dihydro-imidazo[4,5-c]quinolin-2-one], for which the IC50 was 108 nM in series [1], 544 nM in series [2] (read-out: mTOR/IC50) and 54.9 nM in series [3]. The “HT-perm/logPe pH6.8” value in series [4] is reported as −3.9.
On to `COc1ccc(-c2ccc3ncc4c(c3c2)n(-c2cccnc2)c(=O)n4C)cc1OC` [Example 5.2, 8-(3,4-Dimethoxy-phenyl)-3-methyl-1-pyridin-3-yl-1,3-dihydro-imidazo[4,5-c]quinolin-2-one], for which the results for the IC50 in series [1], in series [2] (read-out: mTOR/IC50) and in series [3] were 50.3 nM, 232 nM and 18.1 nM, respectively. Also, in series [4], the “HT-perm/logPe pH6.8” value is given as −3.9.
Consider `COc1ccc(-c2ccc3ncc4c(c3c2)n(-c2cccnc2)c(=O)n4C)cn1` [Example 5.4, 8-(6-Methoxy-pyridin-3-yl)-3-methyl-1-pyridin-3-yl-1,3-dihydro-imidazo[4,5-c]quinolin-2-one], for which the IC50 came to 152 nM in series [1], 115 nM in series [2] (read-out: mTOR/IC50) and 92.4 nM in series [3]. Further, in series [4], the “HT-perm/logPe pH6.8” value is listed as −3.7.
As for `CCNc1cc(-c2ccc3ncc4c(c3c2)n(-c2ccc(F)nc2C)c(=O)n4C)cnc1CO` [Example 7.9, 8-(5-Ethylamino-6-hydroxymethyl-pyridin-3-yl)-1-(6-fluoro-2-methyl-pyridin-3-yl)-3-methyl-1,3-dihydro-imidazo[4,5-c]quinolin-2-one], the IC50 in series [1] was 10 nM; in series [2] (read-out: EPK_mTOR/IC50), below 3 nM; in series [3] it was below 4.57 nM. In addition, the “HT-Perm logPe pH6.8” value in series [4] is listed as −5.2.
`CNc1cc(-c2ccc3ncc4c(c3c2)n(-c2ccc(F)nc2C)c(=O)n4C)cnc1CO` [Example 7.11, 1-(6-Fluoro-2-methyl-pyridin-3-yl)-8-(6-hydroxymethyl-5-methylamino-pyridin-3-yl)-3-methyl-1,3-dihydro-imidazo[4,5-c]quinolin-2-one]: the IC50 came out at 15.8 nM in series [1], 11 nM in series [2] (read-out: EPK_mTOR/IC50) and 12.6 nM in series [3]. In series [4], the “HT-Perm logPe pH6.8” value is −5.4.
For `CNc1ncc(-c2ccc3ncc4c(c3c2)n(-c2ccc(F)nc2C)c(=O)n4C)cc1F` [Example 7.12, 8-(5-Fluoro-6-methylamino-pyridin-3-yl)-1-(6-fluoro-2-methyl-pyridin-3-yl)-3-methyl-1,3-dihydro-imidazo[4,5-c]quinolin-2-one], the results for the IC50 in series [1], in series [2] (read-out: EPK_mTOR/IC50) and in series [3] were 13.5 nM, 66 nM and 6.4 nM, respectively. For the same compound, in series [4], the “HT-Perm logPe pH6.8” value is given as −3.7.
Turning to `CNc1ncc(-c2ccc3ncc4c(c3c2)n(-c2ccc(F)nc2C)c(=O)n4C)cc1C(F)(F)F` [Example 7.13, 1-(6-Fluoro-2-methyl-pyridin-3-yl)-3-methyl-8-(6-methylamino-5-trifluoromethyl-pyridin-3-yl)-1,3-dihydro-imidazo[4,5-c]quinolin-2-one], the IC50 in series [1] is 7.6 nM; in series [2] (read-out: EPK_mTOR/IC50) it was 67 nM; in series [3] it was below 4.57 nM. Moreover, the “HT-Perm logPe pH6.8” value in series [4] is reported as −3.7.
For the compound `CNC(=O)c1cc(-c2ccc3ncc4c(c3c2)n(-c2ccc(F)nc2C)c(=O)n4C)cnc1N` [Example 7.14, 2-Amino-5-[1-(6-fluoro-2-methyl-pyridin-3-yl)-3-methyl-2-oxo-2,3-dihydro-1H-imidazo[4,5-c]quinolin-8-yl]-N-methyl-nicotinamide], the results for the IC50 in series [1], in series [2] (read-out: EPK_mTOR/IC50) and in series [3] were 50.6 nM, 251 nM and 15.2 nM, respectively. Further, the “HT-Perm logPe pH6.8” value in series [4] is on record as −5.9.
As for `CCOCc1cc(-c2ccc3ncc4c(c3c2)n(-c2ccc(F)nc2C)c(=O)n4C)cnc1N` [Example 7.15, 8-(6-Amino-5-ethoxymethyl-pyridin-3-yl)-1-(6-fluoro-2-methyl-pyridin-3-yl)-3-methyl-1,3-dihydro-imidazo[4,5-c]quinolin-2-one], the IC50 was 50.6 nM in series [1], 426 nM in series [2] (read-out: EPK_mTOR/IC50) and 20.1 nM in series [3]. Moreover, in series [4], the “HT-Perm logPe pH6.8” value is recorded as −4.
As for `Cc1nc(F)ccc1-n1c(=O)n(C)c2cnc3ccc(-c4cncc(N)c4)cc3c21` [Example 7.16, 8-(5-Amino-pyridin-3-yl)-1-(6-fluoro-2-methyl-pyridin-3-yl)-3-methyl-1,3-dihydro-imidazo[4,5-c]quinolin-2-one], the IC50 turned out to be 23.3 nM in series [1], 110 nM in series [2] (read-out: EPK_mTOR/IC50) and 30.3 nM in series [3]. Further, in series [4], the “HT-Perm logPe pH6.8” value is −6.
`COCCOc1cc(-c2ccc3ncc4c(c3c2)n(-c2ccc(OC)nc2OC)c(=O)n4C)cnc1C` [Example 8.9, 1-(2,6-Dimethoxy-pyridin-3-yl)-8-[5-(2-methoxy-ethoxy)-6-methyl-pyridin-3-yl]-3-methyl-1,3-dihydro-imidazo[4,5-c]quinolin-2-one]: the IC50 in series [1] came out at 39.5 nM; in series [2] (read-out: EPK_mTOR/IC50), 10 nM; in series [3], 24.9 nM. In addition, the “HT-Perm logPe pH6.8” value in series [4] is reported as −3.9.
In the same order, the values of `COCc1ncc(-c2ccc3ncc4c(c3c2)n(-c2ccc(OC)nc2OC)c(=O)n4C)cc1OC` [Example 8.12, 1-(2,6-Dimethoxy-pyridin-3-yl)-8-(5-methoxy-6-methoxymethyl-pyridin-3-yl)-3-methyl-1,3-dihydro-imidazo[4,5-c]quinolin-2-one] are 81.6 nM, 17 nM, 27.7 nM and −4.
`COc1nc(N2CCNCC2)ccc1-n1c(=O)n(C)c2cnc3ccc(-c4cnc(N(C)C)nc4)cc3c21` [Example 9.4, 8-(2-Dimethylamino-pyrimidin-5-yl)-1-(2-methoxy-6-piperazin-1-yl-pyridin-3-yl)-3-methyl-1,3-dihydro-imidazo[4,5-c]quinolin-2-one]: the IC50 is 19.6 nM in series [1], 9 nM in series [2] (read-out: EPK_mTOR/IC50) and 18 nM in series [3]. In series [4], the “HT-Perm logPe pH6.8” value is listed as −6.1.
As for `CCNc1cc(-c2ccc3ncc4c(c3c2)n(-c2ccc(OC)nc2C)c(=O)n4C)cnc1C` [Example 11.7, 8-(5-Ethylamino-6-methyl-pyridin-3-yl)-1-(6-methoxy-2-methyl-pyridin-3-yl)-3-methyl-1,3-dihydro-imidazo[4,5-c]quinolin-2-one], the values for the IC50 in series [1], in series [2] (read-out: EPK_mTOR/IC50) and in series [3] were 7.5 nM, 3 nM and 4.9 nM, respectively. In addition, the “HT-Perm logPe pH6.8” value in series [4] is listed as −3.7.
